Measured values from ChEMBL document CHEMBL3407393, “Optimisation of LRRK2 inhibitors and assessment of functional efficacy in cell-based models of neuroinflammation” (Eur J Med Chem, 2015).
Active and inactive are the calls of the source. No cut-off for these calls is given here.

Tests used:
[1] = (§1) Inhibition of IL6 secretion in LPS/IL-1beta-stimulated human primary microglia compound pretreated at 10 uM for 30 mins before stimulation measured after 24 hrs by ELISA; assay type: functional
[2] = target: Leucine-rich repeat serine/threonine-protein kinase 2 (Homo sapiens, UniProt Q5S007, G2019S); assay: Inhibition of LRRK2 G2019S mutant ([…]) (unknown origin) stably expressed in HEK293 cell lysate using [gamma-32P] after 15 mins by Cerenkov counting method; assay type: cell-free
[3] = Inhibition of IL6 secretion in LPS/IL-1beta-stimulated human U87 cells compound pretreated at 10 uM for 30 mins before stimulation measured after 24 hrs by ELISA; assay type: functional, U-87MG ATCC; settings: U-87 MG
[4] = Inhibition of IL6 secretion in LPS/IL-1beta-stimulated human U87 cells compound pretreated for 30 mins before stimulation measured after 24 hrs by ELISA; assay type: functional, cell-based, U-87MG ATCC; settings: U-87 MG
[5] = Inhibition of IL6 secretion in LPS/IL-1beta-stimulated human primary microglia compound pretreated for 30 mins before stimulation measured after 24 hrs by ELISA; assay type: functional
[6] = Biochemical index, ratio of IC50 for LRRK2 G2019S mutant (unknown origin) to EC50 for IL6 secretion in LPS/IL-1beta-stimulated human primary microglia
[7] = Oral bioavailability in mouse; assay type: ADME, organism-based; settings: in vivo
[8] = species on record: Homo sapiens; assay: as §1; assay type: functional

Leucine-rich repeat serine/threonine-protein kinase 2, sequence (Q5S007 whole entry G2019S): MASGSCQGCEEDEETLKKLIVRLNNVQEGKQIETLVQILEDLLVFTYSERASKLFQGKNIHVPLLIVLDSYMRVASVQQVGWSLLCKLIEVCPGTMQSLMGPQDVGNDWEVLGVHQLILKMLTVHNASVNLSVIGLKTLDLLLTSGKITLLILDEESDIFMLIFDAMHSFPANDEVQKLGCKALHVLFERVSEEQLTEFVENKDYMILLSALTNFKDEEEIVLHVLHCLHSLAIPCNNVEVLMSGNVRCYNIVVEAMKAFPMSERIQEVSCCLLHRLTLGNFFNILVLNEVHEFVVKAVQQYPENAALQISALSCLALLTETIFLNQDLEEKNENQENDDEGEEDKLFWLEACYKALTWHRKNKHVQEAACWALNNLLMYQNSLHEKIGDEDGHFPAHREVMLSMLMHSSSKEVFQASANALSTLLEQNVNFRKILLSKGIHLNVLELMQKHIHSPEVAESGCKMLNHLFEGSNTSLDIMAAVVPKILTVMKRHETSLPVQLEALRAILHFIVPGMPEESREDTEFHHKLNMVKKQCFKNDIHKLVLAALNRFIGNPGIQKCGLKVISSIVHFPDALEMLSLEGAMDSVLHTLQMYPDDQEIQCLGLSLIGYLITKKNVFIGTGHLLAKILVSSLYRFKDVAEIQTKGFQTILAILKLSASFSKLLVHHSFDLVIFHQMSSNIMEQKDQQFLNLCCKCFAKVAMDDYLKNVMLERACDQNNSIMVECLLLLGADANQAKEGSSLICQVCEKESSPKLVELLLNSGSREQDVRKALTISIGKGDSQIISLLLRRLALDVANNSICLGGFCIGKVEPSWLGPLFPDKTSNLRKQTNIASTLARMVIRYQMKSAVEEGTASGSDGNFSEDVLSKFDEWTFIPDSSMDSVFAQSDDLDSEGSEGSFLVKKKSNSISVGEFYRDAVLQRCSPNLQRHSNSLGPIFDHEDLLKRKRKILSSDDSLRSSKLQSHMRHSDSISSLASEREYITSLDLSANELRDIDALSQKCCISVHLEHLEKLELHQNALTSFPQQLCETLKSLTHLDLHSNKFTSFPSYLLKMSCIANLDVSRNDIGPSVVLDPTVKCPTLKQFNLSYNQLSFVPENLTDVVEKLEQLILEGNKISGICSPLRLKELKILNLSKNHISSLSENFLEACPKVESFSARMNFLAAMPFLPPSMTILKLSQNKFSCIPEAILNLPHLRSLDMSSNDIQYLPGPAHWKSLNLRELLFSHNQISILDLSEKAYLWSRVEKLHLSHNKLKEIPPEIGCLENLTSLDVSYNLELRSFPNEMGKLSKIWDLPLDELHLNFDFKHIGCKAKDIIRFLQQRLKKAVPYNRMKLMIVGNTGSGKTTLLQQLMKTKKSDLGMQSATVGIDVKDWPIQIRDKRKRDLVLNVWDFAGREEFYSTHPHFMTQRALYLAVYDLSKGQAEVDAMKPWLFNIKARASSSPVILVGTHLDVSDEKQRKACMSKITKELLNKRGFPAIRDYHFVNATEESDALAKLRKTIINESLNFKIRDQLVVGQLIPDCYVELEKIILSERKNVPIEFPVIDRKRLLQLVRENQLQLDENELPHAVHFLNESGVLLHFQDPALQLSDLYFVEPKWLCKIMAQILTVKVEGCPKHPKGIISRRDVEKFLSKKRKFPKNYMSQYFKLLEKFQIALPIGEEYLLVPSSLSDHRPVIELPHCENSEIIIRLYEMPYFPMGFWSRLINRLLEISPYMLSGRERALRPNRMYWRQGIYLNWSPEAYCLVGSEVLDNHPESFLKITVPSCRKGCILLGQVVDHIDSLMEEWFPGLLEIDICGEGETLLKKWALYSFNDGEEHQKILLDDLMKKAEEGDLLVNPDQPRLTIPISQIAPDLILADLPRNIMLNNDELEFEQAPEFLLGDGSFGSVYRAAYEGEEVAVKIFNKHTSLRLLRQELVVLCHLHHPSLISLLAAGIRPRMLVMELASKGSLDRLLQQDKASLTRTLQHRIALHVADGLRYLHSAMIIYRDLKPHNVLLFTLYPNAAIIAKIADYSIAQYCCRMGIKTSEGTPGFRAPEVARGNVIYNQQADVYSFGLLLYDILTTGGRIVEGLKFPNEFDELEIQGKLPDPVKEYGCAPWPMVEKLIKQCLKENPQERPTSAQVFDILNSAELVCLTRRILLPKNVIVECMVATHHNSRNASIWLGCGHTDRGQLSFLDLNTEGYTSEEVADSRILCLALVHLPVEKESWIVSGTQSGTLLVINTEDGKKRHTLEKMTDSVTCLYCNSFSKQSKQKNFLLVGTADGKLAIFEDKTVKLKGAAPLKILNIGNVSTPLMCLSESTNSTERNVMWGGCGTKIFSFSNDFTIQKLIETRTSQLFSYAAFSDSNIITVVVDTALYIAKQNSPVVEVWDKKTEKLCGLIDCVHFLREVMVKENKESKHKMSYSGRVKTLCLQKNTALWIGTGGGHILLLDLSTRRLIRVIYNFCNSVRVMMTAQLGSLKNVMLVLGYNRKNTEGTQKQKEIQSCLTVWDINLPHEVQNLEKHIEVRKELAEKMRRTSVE

Compound: O=C(c1ccc(NCc2ccc([N+](=O)[O-])cc2)c(Cl)c1)N1CCC(N2CCCCC2)CC1
- inhibition at 10 µM [1]: 56.3%
- IC50 [2]: > 1000 nM
- inhibition at 10 µM [3]: 56.4%

Compound: Nc1ccc(C(=O)N2CCC(N3CCCCC3)CC2)cc1Cl
- inhibition at 10 µM [1]: 16.9%
- IC50 [2]: 654 nM
- inhibition at 10 µM [3]: 49.9%

Compound: CN1C(=O)c2ccccc2N(C)c2nc(Nc3ccc(C(=O)N4CCC(N5CCCCC5)CC4)cc3Cl)ncc21
- EC50 [4]: 3680 nM
- inhibition at 10 µM [1]: 81.3%
- IC50 [2]: 72 nM
- EC50 [5]: 4260 nM
- inhibition at 10 µM [3]: 87.9%
- Ratio IC50/EC50 [6]: 0.017

Compound: COc1cc(C(=O)N2CCC(N3CCN(C)CC3)CC2)ccc1Nc1ncc2c(n1)N(C)c1ccccc1C(=O)N2C
- EC50 [4]: 660 nM
- inhibition at 10 µM [1]: 95%
- IC50 [2]: 7.9 nM
- EC50 [5]: 830 nM
- inhibition at 10 µM [3]: 94.1%
- bioavailability [7]: 49.3%
- Ratio IC50/EC50 [6]: 0.009

Compound: CC(=O)Nc1ccc(Nc2ccc(C(=O)N3CCC(N4CCCCC4)CC3)cc2Cl)cc1
- inhibition at 10 µM [1]: 31.8%
- IC50 [2]: > 1000 nM
- inhibition at 10 µM [3]: 36.1%

Compound: O=C(c1ccc(Nc2ccccc2[N+](=O)[O-])c(Cl)c1)N1CCC(N2CCCCC2)CC1
- inhibition at 10 µM [1]: 65.4%
- IC50 [2]: > 1000 nM
- inhibition at 10 µM [3]: 45.6%

Compound: CN1Cc2ccccc2N(C)c2nc(Cl)ncc21
- inhibition at 10 µM [1]: 6.3%
- IC50 [2]: > 1000 nM
- inhibition at 10 µM [3]: 64.6%

Compound: CN1C(=O)c2ccccc2N(C)c2nc(Cl)ncc21
- inhibition at 10 µM [1]: 18%
- IC50 [2]: > 1000 nM
- inhibition at 10 µM [3]: 23.2%

Compound: O=C(c1ccc(Nc2ccc([N+](=O)[O-])cc2)c(Cl)c1)N1CCC(N2CCCCC2)CC1
- inhibition at 10 µM [1]: 53.6%
- IC50 [2]: > 1000 nM
- inhibition at 10 µM [3]: 47.9%

Compound: O=C(Nc1ccc(C(=O)N2CCC(N3CCCCC3)CC2)cc1Cl)c1ccc[nH]1
- inhibition [8]: inactive
- IC50 [2]: > 1000 nM
- inhibition at 10 µM [3]: 51.9%

Compound: O=C(c1ccc(NCc2ccccc2)c(Cl)c1)N1CCC(N2CCCCC2)CC1
- inhibition at 10 µM [1]: 65.3%
- IC50 [2]: > 1000 nM
- inhibition at 10 µM [3]: 62.6%

Compound: CCCNc1ccc(C(=O)N2CCC(N3CCCCC3)CC2)cc1Cl
- inhibition at 10 µM [1]: 47.6%
- IC50 [2]: > 1000 nM
- inhibition at 10 µM [3]: 55.8%

Compound: O=C(c1ccc(Nc2cccnc2)c(Cl)c1)N1CCC(N2CCCCC2)CC1
- inhibition at 10 µM [1]: 36.3%
- IC50 [2]: > 1000 nM
- inhibition at 10 µM [3]: 46.6%

Compound: CN1Cc2ccccc2N(C)c2nc(Nc3ccc(C(=O)N4CCC(N5CCCCC5)CC4)cc3Cl)ncc21
- inhibition at 10 µM [1]: 70%
- IC50 [2]: 51.2 nM
- inhibition at 10 µM [3]: 58.8%

Compound: O=C(c1ccc(NC2CCCCC2)c(Cl)c1)N1CCC(N2CCCCC2)CC1
- inhibition at 10 µM [1]: 82.4%
- IC50 [2]: > 1000 nM
- inhibition at 10 µM [3]: 54.2%

Compound: Cc1ccc(Nc2ccc(C(=O)N3CCC(N4CCCCC4)CC3)cc2Cl)cc1
- inhibition at 10 µM [1]: 29.7%
- IC50 [2]: > 1000 nM
- inhibition at 10 µM [3]: 37.8%

Compound: COc1cccc(CNc2ccc(C(=O)N3CCC(N4CCCCC4)CC3)cc2Cl)c1
- inhibition at 10 µM [1]: 52.9%
- IC50 [2]: > 1000 nM
- inhibition at 10 µM [3]: 52%

Compound: Cc1ccc(CNc2ccc(C(=O)N3CCC(N4CCCCC4)CC3)cc2Cl)cc1
- inhibition at 10 µM [1]: 42%
- IC50 [2]: > 1000 nM
- inhibition at 10 µM [3]: 36.1%

Compound: COc1cccc(Nc2ccc(C(=O)N3CCC(N4CCCCC4)CC3)cc2Cl)c1
- inhibition at 10 µM [1]: 53%
- IC50 [2]: > 1000 nM
- inhibition at 10 µM [3]: 47.8%

Compound: O=C(c1ccc(Nc2ccccn2)c(Cl)c1)N1CCC(N2CCCCC2)CC1
- inhibition at 10 µM [1]: 7.3%
- IC50 [2]: > 1000 nM
- inhibition at 10 µM [3]: 46.7%

Compound: COc1ccccc1Nc1ccc(C(=O)N2CCC(N3CCCCC3)CC2)cc1Cl
- inhibition at 10 µM [1]: 56.6%
- IC50 [2]: > 1000 nM
- inhibition at 10 µM [3]: 58.6%

Compound: Cn1cccc1CNc1ccc(C(=O)N2CCC(N3CCCCC3)CC2)cc1Cl
- inhibition at 10 µM [1]: 17.3%
- IC50 [2]: > 1000 nM
- inhibition at 10 µM [3]: 42.4%

Compound: O=C(c1ccc(Nc2cncnc2)c(Cl)c1)N1CCC(N2CCCCC2)CC1
- IC50 [2]: > 1000 nM
- inhibition at 10 µM [3]: 40.7%

Compound: O=C(c1ccc(Nc2ccccc2)c(Cl)c1)N1CCC(N2CCCCC2)CC1
- inhibition at 10 µM [1]: 44.7%
- IC50 [2]: > 1000 nM
- inhibition at 10 µM [3]: 32.3%

Compound: O=C(c1ccc(Nc2ncccn2)c(Cl)c1)N1CCC(N2CCCCC2)CC1
- inhibition at 10 µM [1]: 46.4%
- IC50 [2]: > 1000 nM
- inhibition at 10 µM [3]: 39.3%
